In one experiment the test system is LEPR. The experiment can be described thus: Affymetrix feline GeneChip gene expression analysis, LEPR. As to conditions: in all cell lines tested (CCL-150, CCL-176, CRL-2032, CCL-94); amount tested 0.005 mg/mL, 0.05 mg/mL; treatment intensity/control intensity. In kind it is cell-based. Here is the method:
(§1) Gene expression was analyzed using proprietary feline GeneChip® Arrays prepared by Affymetrix, Inc., Santa Clara, Calif. 95051. Total RNA is reverse transcribed into cDNA. The cDNA is used to generate cRNA which is fragmented and used as probes for GeneChip hybridization. The gene chip is washed and the hybridization signal is measured with an Affymetrix laser scanner. The hybridization data is then validated and normalized for further analysis.
(§2) Materials: Affymetrix provided most of the reagents and kit. Other reagents listed in the Affymetrix Manual but not supplied in the kit were obtained separately. Refer to GeneChip Expression Analysis Technical Manual (701021 Rev.4) for the details.
(§3) Equipment. […]
(§4) Affymetrix gene chips are used to determine the effect of various test substances or ingredients on gene expression in four feline cell lines and appropriate controls. […] Gene expression was measured for the treatment cell lines and controls. The gene expression data was determined to be either “up” or “down”-regulated for any given treatment. The decision on whether a gene is “up” or “down” is based on the fold change, which is calculated as treatment intensity/control intensity for each individual probe.

Another experiment relates to NPY. The experiment can be described thus: Affymetrix feline GeneChip gene expression analysis, NPY. In kind it is cell-based. The following applies: in two cell lines tested, amount tested 0.003 mg/mL, 0.03 mg/mL, treatment intensity/control intensity. As for the experimental part:
as §1, §2, §3, §4

The values below come from patent US9861116B2, “Pet food compositions for inducing a satiety response” (Hill's Pet Nutrition, Inc., priority 2010, dated 2018).

`Oc1ccc(C=Cc2cc(O)cc(O)c2)cc1` [Resveratrol]: the “Fold Change (gene expression, LEPR)” value in the experiment on LEPR is 1.96 (in all cell lines.

With `CC1=C(/C=C/C(C)=C/C=C/C(C)=C/C=C/C=C(C)/C=C/C=C(C)/C=C/C2=C(C)CCCC2(C)C)C(C)(C)CCC1` [Beta-Carotene], in the experiment with NPY, the “Fold Change (gene expression, NPY)” value is given as −1.75 (in two cell.
